The compounds below were run against full-length recombinant human FYN A (Homo sapiens (Human), UniProt P06241) (assay: ADP-Glo Kinase Assay of FYN kinase inhibition). Settings: primary screen, initial compounds.
Type: biochemical
Outline: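 GST-tagged full-length FYN A (baculovirus, Sf9) at 3 pg preincubated 30 min RT with compound (10-point 3-fold series from 10 μM) in Tris pH 7.5/MgCl2 buffer. 12-mer tyrosine peptide plus 12.5 pmol ATP added, 90 min RT; ADP measured by ADP-Glo luminescence, IC50 from dose-response.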

full-length recombinant human FYN A, sequence (P06241 whole entry): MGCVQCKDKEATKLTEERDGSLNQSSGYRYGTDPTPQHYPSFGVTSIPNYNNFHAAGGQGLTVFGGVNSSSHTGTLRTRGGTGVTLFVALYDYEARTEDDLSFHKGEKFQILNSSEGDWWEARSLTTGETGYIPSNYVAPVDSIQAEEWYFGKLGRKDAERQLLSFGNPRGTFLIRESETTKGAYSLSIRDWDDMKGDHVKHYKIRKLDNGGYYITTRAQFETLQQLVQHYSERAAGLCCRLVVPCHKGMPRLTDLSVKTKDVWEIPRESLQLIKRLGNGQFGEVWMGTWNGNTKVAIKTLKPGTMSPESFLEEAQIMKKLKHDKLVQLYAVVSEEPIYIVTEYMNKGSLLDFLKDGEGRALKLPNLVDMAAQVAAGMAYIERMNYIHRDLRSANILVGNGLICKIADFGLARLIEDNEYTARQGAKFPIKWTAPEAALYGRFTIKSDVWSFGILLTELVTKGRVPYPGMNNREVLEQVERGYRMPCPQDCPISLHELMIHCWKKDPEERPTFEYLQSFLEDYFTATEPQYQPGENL

In order of falling IC50:
1. COc1cccc(Nc2cc3[nH]c(-c4cn[nH]c4)cc3cn2)c1 [Compound 309, N-(3-methoxyphenyl)-2-(1H-pyrazol-4-yl)-1H-pyrrolo[3,2-c]pyridin-6-amine]  16.6 µM
2. CN1CCN(c2ccc(Nc3cc4c(cn3)cc(-c3ccccc3)n4Cc3ccccc3)cc2)CC1 [Compound 311, 1-benzyl-N-[4-(4-methylpiperazin-1-yl)phenyl]-2-phenyl-pyrrolo[3,2-c]pyridin-6-amine]  15 µM
3. CN1CCN(c2ccc(Nc3cc4c(cn3)cc(-c3cccnc3)n4Cc3ccccc3)cc2)CC1 [Compound 305, 1-benzyl-N-[4-(4-methyl-piperazin-1-yl)phenyl]-2-(3-pyridyl)pyrrolo [3,2-c]pyridin-6-amine]  13.7 µM
4. COc1ccc(Nc2cc3[nH]c(-c4cn[nH]c4)cc3cn2)cc1OC [Compound 310, N-(3,4-dimethoxy-phenyl)-2-(1H-pyrazol-4-yl)-1H-pyrrolo[3,2-2]pyridin-6-amine]  12.7 µM
5. COc1ccc(-c2cc(=O)c3cc(O)ccc3o2)cc1OC [Compound 300, 2-(3,4-dimethoxy-phenyl)-6-hydroxy-chromen-4-one]  8.95 µM
6. c1ccc(Nc2cc3[nH]c(-c4cn[nH]c4)cc3cn2)nc1 [Compound 306, 2-(1H-pyrazol-4-yl)-N-(2-pyridyl)-1H-pyrrolo[3,2-c]pyridin-6-amine]  7.57 µM
7. c1ccc(Cn2c(-c3cccnc3)cc3cnc(Nc4ccncn4)cc32)cc1 [Compound 308, 1-benzyl-2-(3-pyridyl)-N-pyrimidin-4-yl-pyrrolo[3,2-c]pyridin-6-amine]  6.85 µM
8. CS(=O)(=O)c1ccc(Nc2cc3[nH]c(-c4cn[nH]c4)cc3cn2)cc1 [Compound 307, N-(4-methyl-sulfonylphenyl)-2-(1H-pyrazol-4-yl)-1H-pyrrolo[3,2-c]pyridin-6-amine]  4.78 µM
9. OCc1cccc(-c2cnc3ccc(Cc4ccc(F)cc4)nn23)c1 [Compound 302, [3-[6-[(4-fluorophenyl)methyl]imidazo [1,2-b]pyridazin-3-yl]phenyl] methanol]  3.97 µM
10. CC(=O)c1cccc(-c2cnc3c(NC=O)cc(-c4ccc(C(=O)N5CCOCC5)cc4)cn23)c1 [Compound 291, N-[3-(3-acetylphenyl)-6-[4-(morpholine-4-carbonyl)phenyl]imidazo[1,2-a]pyridin-8-yl]formamide]  2.99 µM
11. COc1cccc(-c2ccc3ncc(-c4cccc(CO)c4)n3n2)c1 [Compound 303, [3-[6-(3-methoxyphenyl)imidazo[1,2-b]pyridazin-3-yl]phenyl] methanol]  2.74 µM
12. COc1ccc(-c2cnc3sc(NCc4ccncc4)nn23)cn1 [Compound 287, 5-(6-methoxy-3-pyridyl)-N-(4-pyridylmethyl) imidazo[2,1-b] [1,3,4]thiadiazol-2-amine]  2.59 µM
13. CN(C)C(=O)c1cccc(-c2cnc3sc(NCc4ccco4)nn23)c1 [Compound 289, 3-[2-(2-furylmethylamino)imidazo[2,1-p] [1,3,4]thiadiazol-5-yl]-N,N-dimethyl-benzamide]  2.46 µM
14. OCc1ccc(-c2ccc3ncc(-c4cccc(CO)c4)n3n2)cc1 [Compound 295, [4-[3-[3-(hydroxymethyl)phenyl]imidazo [1,2-b]pyridazin-6-yl]phenyl] methanol]  2.23 µM
15. OCc1cccc(-c2cnc3ccc(-c4cccnc4)nn23)c1 [Compound 301, [3-[6-(3-pyridyl)imidazo [1,2-b]pyridazin-3-yl]phenyl] methanol]  2.04 µM
16. NC(=O)c1ccc(-c2ccc3ncc(-c4cccc(CO)c4)n3n2)cc1 [Compound 296, 4-[3-[3-(hydroxymethyl)phenyl]imidazo [1,2-b]pyridazin-6-yl]benzamide]  1.89 µM
17. COc1cc(-c2cnc3sc(NCCc4ccncc4)nn23)cc(OC)c1OC [Compound 284, N-[2-(4-pyridyl)ethyl]-5-(3,4,5-trimethoxy-phenyl)imidazo [2,1-b][1,3,4] thiadiazol-2-amine]  1.77 µM
18. CC(=O)Nc1cccc(-c2ccc3ncc(-c4cccc(CO)c4)n3n2)c1 [Compound 288, N-[3-[3-[3-(hydroxymethyl)phenyl]imidazo [1,2-b]pyridazin-6-yl]phenyl] acetamide]  1.64 µM
19. CN(C)C(=O)c1cccc(-c2cnc3sc(NCc4ccccc4)nn23)c1 [Compound 286, 3-[2-(benzylamino)imidazo[2,1-d] [1,3,4]thiadiazol-5-yl]-N,N-dimethyl-benzamide]  1.51 µM
20. CN(C)CCNC(=O)c1cccc(-c2cnc3ccc(-c4ccc(CO)cc4)nn23)c1 [Compound 297, N-(2-dimethylamino-ethyl)-3-[6-[4-(hydroxymethyl)phenyl]imidazo [1,2-b]pyridazin-3-yl]benzamide]  1.48 µM
21. NC(=O)c1cccc(-c2ccc3ncc(-c4ccncc4)n3n2)c1 [Compound 313, 3-[3-(4-pyridyl)imidazo [1,2-b]pyridazin-6-yl]benzamide]  1.2 µM
22. CC(=O)Nc1cccc(-c2cnc3ccc(-c4ccc(N(C)C)cc4)nn23)c1 [Compound 290, N-[3-[6-(4-dimethylamino-phenyl)imidazo [1,2-a]pyridazin-3-yl]phenyl] acetamide]  1.1 µM
23. CC(=O)c1cccc(-c2cnc3ccc(-c4cccc(O)c4)nn23)c1 [Compound 294, 1-[3-[6-(3-hydroxyphenyl)imidazo[1,2-a]pyridazin-3-yl]phenyl] ethanone]  0.994 µM
24. CS(=O)(=O)Nc1cccc(-c2ccc3ncc(-c4ccc(CO)cc4)n3n2)c1 [Compound 293, N-[3-[3-[4-(hydroxymethyl)phenyl]imidazo [1,2-b]pyridazin-6-yl]phenyl] methane-sulfonamide]  0.83 µM
25. CC(=O)Nc1cccc(-c2ccc3ncc(-c4cccc(C(C)=O)c4)n3n2)c1 [Compound 281, N-[3-[3-(3-acetylphenyl)imidazo[1,2-b]pyridazin-6-yl]phenyl] acetamide]  0.621 µM
26. COc1ccccc1-c1ccc2ncc(-c3ccncc3)n2n1 [Compound 312, 6-(2-methoxyphenyl)-3-(4-pyridyl)imidazo [1,2-b]pyridazine]  0.585 µM
27. CC(=O)Nc1ccc(-c2ccc3ncc(-c4cccc(O)c4)n3n2)cc1 [Compound 283, N-[4-[3-(3-hydroxyphenyl)imidazo[1,2-b]pyridazin-6-yl]phenyl] acetamide]  0.519 µM
28. NC(=O)c1cccc(-c2ccc3ncc(-c4cccc(O)c4)n3n2)c1 [Compound 298, 3-[3-(3-hydroxyphenyl)imidazo[1,2-b]pyridazin-6-yl]benzamide]  0.311 µM
29. CS(=O)(=O)Nc1cccc(-c2ccc3ncc(-c4ccncc4)n3n2)c1 [Compound 304, N-[3-[3-(4-pyridyl)imidazo [1,2-b]pyridazin-6-yl]phenyl] methane-sulfonamide]  0.298 µM
30. COc1cc(-c2ccc3ncc(-c4ccc(CO)cc4)n3n2)ccc1O [Compound 299, 4-[3-[4-(hydroxymethyl)phenyl]imidazo [1,2-b]pyridazin-6-yl]-2-methoxy-phenol]  0.223 µM
31. CC(=O)Nc1cccc(-c2cnc3ccc(-c4ccc(C(N)=O)cc4)nn23)c1 [Compound 282, 4-[3-(3-acetamidophenyl)imidazo[1,2-b]pyridazin-6-yl]benzamide]  0.222 µM
32. COc1cc(-c2cnc3ccc(-c4cccc(NC(C)=O)c4)nn23)ccc1O [Compound 292, N-[3-[3-(4-hydroxy-3-methoxy-phenyl)imidazo [1,2-b]pyridazin-6-yl]phenyl] acetamide]  0.102 µM
